Measured values published in paper PMC9926489, “Chemical Optimization of Selective Pseudomonas aeruginosa LasB Elastase Inhibitors and Their Impact on LasB-Mediated Activation of IL-1β in Cellular and Animal Infection Models” (ACS Infectious Diseases, 2023).

What was measured:
MMP-2 = biological target: T1, MMP-2 (Homo sapiens, UniProt P08253); experiment: MMP-2 selectivity assay; format: biochemical; conditions: human MMP-2
T1 sequence (P08253 110-660): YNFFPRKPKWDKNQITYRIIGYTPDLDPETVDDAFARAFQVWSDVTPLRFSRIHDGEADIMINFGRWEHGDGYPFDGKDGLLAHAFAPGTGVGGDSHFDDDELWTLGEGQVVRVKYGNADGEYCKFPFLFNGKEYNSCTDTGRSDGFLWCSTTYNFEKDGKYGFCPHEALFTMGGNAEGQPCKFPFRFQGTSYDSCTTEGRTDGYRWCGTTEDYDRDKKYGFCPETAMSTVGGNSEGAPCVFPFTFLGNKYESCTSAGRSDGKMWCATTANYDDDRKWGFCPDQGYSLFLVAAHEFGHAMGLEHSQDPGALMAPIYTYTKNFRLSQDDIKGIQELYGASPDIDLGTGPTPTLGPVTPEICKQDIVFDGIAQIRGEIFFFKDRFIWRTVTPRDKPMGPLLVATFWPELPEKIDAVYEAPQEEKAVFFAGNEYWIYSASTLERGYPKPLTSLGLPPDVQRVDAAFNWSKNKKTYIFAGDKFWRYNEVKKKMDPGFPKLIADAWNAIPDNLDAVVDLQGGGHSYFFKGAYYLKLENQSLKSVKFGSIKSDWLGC
Protocol: Selectivity of compound inhibition was evaluated against other proteases at concentrations between 0.4 and 200 μM. Activity against rabbit angiotensin-converting enzyme (ACE, Sigma) was assessed using 10 μM fluorogenic substrate Abz-Phe-Arg-Lys(Dnp)-P (Enzo Life Sciences) in 100 mM Tris-HCl pH 7, 50 mM NaCl, 10 μM Zn SO4. Activity against human matrix metalloproteases (MMP)-2 and MMP-9 was assessed in 50 mM HEPES pH 7.5, 10 mM CaCl2, 0.01% Triton X-100 using 4 μM fluorogenic substrate Mca-Pro-Leu-Gly-Leu-Dpa-Ala-Arg-NH2 (Enzo Life Sciences). Activity against MMP-1 and MMP-13 was assessed in 25 mM HEPES pH 7.5, 100 mM NaCl, 100 mM CaCl2, 0.0005% Brij using 7.5 μM fluorogenic substrate Mca-Lys-Pro-Leu-Gly-Leu-Dpa-Ala-Arg-NH2 (Sigma) for MMP-1 and 1.25 μM fluorogenic substrate Mca-Pro-Cha-Gly-Nva-His-Ala-Dpa-NH2 (Millipore) for MMP-13. Activity against human neutrophil elastase (HNE, Enzo Life Sciences) was assessed in 100 mM HEPES pH 7.5, 500 mM NaCl, 0.01% of Triton X-100 using 100 μM fluorogenic substrate MeOSuc-AAPV-AMC (Enzo Life Sciences).

P. aeruginosa PAO1 = experiment: Mouse P. aeruginosa lung infection model, bacterial numbers (CFUs) in lung homogenates; format: in vivo; conditions: C57Bl/6 mice, 24 h
Protocol: To investigate if compounds 12 and 16 were able to engage the LasB target in vivo, in the context of a P. aeruginosa lung infection, and to determine the consequences of that inhibition, immunocompetent C57Bl/6 mice were infected intranasally with P. aeruginosa PAO1 and treated with two doses of inhibitors, 10 and 30 mg/kg, administered IV at 1 and 4 h post-infection (Figure 5A). A control group of PAO1-infected animals treated with vehicle and a group of animals infected with the isogenic ΔlasB strain were included in the study. Mice were euthanized 24 h post-infection and their lung homogenates assayed for activated mature IL-1β (using the IL-1 reporter assay) and bacterial numbers (by CFU enumeration).
Infection experiments were approved by the Institutional Animal Care and Use Committee of Emory University. To prepare the bacterial inoculum, P. aeruginosa PAO1 (or its ΔlasB derivative) was grown in Luria broth with shaking at physiologic (37 °C) temperature for 18 h to maximally express LasB (at late log phase). Bacteria were then harvested, washed, and diluted in sterile phosphate-buffered saline (PBS) for delivery of 10^9 colony-forming units (CFUs) in 40 μL. For infection, female C57Bl/6 mice (five/group) were sedated using isofluorane and the bacterial suspension was slowly administered via micropipette between the nostrils and the animals were allowed to aspirate the inoculum via the normal breathing process. Compounds 12 and 16 were administered in PBS via injection (100 μL volume) to achieve doses of 10 and 30 mg/kg. The mice were euthanized 24 h post-infection and the lungs were excised. Active IL-1β was quantified by adding 100 μL of cell-free homogenate to IL-1β responsive HEK IL-1R-lux reporter cells. Activity was assayed by luminescence measured with D-luciferin substrate (Steady-Luc, Biotium) on a multimode reader (PerkinElmer) and expressed as relative luminescence units (RU). CFU was enumerated by dilution plating on Luria agar. Statistics were calculated by ANOVA with a Dunnett post-test.

[1] = biological target: T2, secreted LasB in P. aeruginosa PAO1-infected THP-1 macrophages (Pseudomonas aeruginosa, UniProt P14756); experiment: LasB activity (Sub115 hydrolysis) in supernatants of P. aeruginosa-infected THP-1 macrophages; format: cell-based; conditions: PAO1-infected THP-1 macrophages, 2 h, inhibitor at 4 μM
T2 construct: The mature LasB protein is a 33 kDa metalloprotease, which is secreted from P. aeruginosa; endogenous in cells; host or cells: P. aeruginosa PAO1 infecting human THP-1 macrophages (MOI 10:1); supernatant after 2 h
T2 sequence (P14756 198-498): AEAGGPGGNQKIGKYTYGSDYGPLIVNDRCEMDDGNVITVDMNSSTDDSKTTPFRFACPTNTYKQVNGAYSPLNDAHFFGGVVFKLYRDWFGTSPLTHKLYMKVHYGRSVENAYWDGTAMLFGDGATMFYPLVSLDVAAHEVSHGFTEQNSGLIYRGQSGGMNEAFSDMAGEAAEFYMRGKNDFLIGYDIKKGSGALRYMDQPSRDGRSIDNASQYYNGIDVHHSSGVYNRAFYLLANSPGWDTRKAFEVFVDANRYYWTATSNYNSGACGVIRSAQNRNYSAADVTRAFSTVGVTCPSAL
Protocol: Further to showing in vitro inhibition of LasB-mediated pro-IL-1β proteolysis, experiments were performed to determine the effect of compounds 12 and 16 on IL-1β activation and functionality in human macrophage cell cultures infected with P. aeruginosa PAO1, or an isogenic lasB deletion mutant thereof (ΔlasB). In these experiments, the levels of LasB activity in culture supernatants were measured via hydrolysis of the Sub115 fluorescent peptide, while the effect of LasB activity on IL-1β activation (functionality) was measured using a luciferase reporter cell line sensitive to IL-1β induction (Figure 3).
Human THP-1 macrophages were cultured by conventional methods then, pre-infection, culture media were replaced by RPMI lacking phenol red and antibiotics. Compounds VX-765 (caspase-1 inhibitor, developed by Vertex) and/or LasB inhibitors were added, immediately followed by inoculation with P. aeruginosa PAO1 or an isogenic lasB deletion mutant (ΔlasB), previously grown in Luria broth to late exponential phase (OD600 = 1.2) then washed and diluted in PBS, at a multiplicity of infection (MOI) of 10 to 1. After 2 h post-infection, 50 μL aliquots of supernatant were removed and used to quantitate both LasB activity and IL-1β functionality. To determine LasB activity, 50 μL of supernatant was added to Sub115 IL-1β peptide and hydrolysis of Sub115 was monitored spectrophotometrically with excitation at 355 nm and emission at 450 nm, as described above. Results were expressed as relative fluorescence units (RFU).
In the first variation, experimental infections were performed with P. aeruginosa PAO1 and ΔlasB bacteria incubated with varying quantities of inhibitor at final concentrations ranging from 0.5 to 8 μM. In the second, cells were treated and infected in the same manner and also treated with 5 μM VX-765 to provide a control for IL-1β activation by the inflammasome pathway.

[2] = 30 mg/kg IV at 1 and 4 h post-infection

Row | Structure (SMILES) | IC50 (MMP-2) [µM] | log reduction in bacterial numbers (CFUs) in lung (P. aeruginosa PAO1; 10 mg/kg IV at 1 and 4 h post-infection) [log] | log reduction in bacterial numbers (CFUs) in lung (P. aeruginosa PAO1; [2]) [log] | LasB activity in culture supernatant (Sub115 hydrolysis) [1]
1 | COc1cc2sc(CNC(=O)C3(CC(=O)O)Cc4ccccc4C3)nc2cc1OCCC[N+](C)(C)C [Compound 12] | > 200 | 0.48 | 0.69 | complete abolition of activity
2 | COc1cc2sc(CNC(=O)C3(CC(=O)O)Cc4cc(F)c(F)cc4C3)nc2cc1OCCC[N+](C)(CCO)CCO [Compound 16] | > 200 |  | 0.47 | complete abolition of activity
